Assay results as given in ChEMBL document CHEMBL3792297, “Studies on phenothiazines: New microtubule-interacting compounds with phenothiazine A-ring as potent antineoplastic agents” (Bioorg Med Chem, 2016).

How the values were obtained:
[1] = Growth inhibition of human SW620 cells at 10 uM after 48 hrs by SRB assay relative to control; assay type: functional; details: SW-620, 48 h, read-out: GI
[2] = Growth inhibition of human SNB75 cells at 10 uM after 48 hrs by SRB assay relative to control; assay type: functional; details: SNB-75, 48 h, read-out: GI
[3] = Growth inhibition of human RXF393 cells at 10 uM after 48 hrs by SRB assay relative to control; assay type: functional; details: RXF 393, 48 h, read-out: GI
[4] = Growth inhibition of human RPMI8226 cells at 10 uM after 48 hrs by SRB assay relative to control; assay type: functional; details: RPMI-8226, 48 h, read-out: GI
[5] = Growth inhibition of human HCT116 cells at 10 uM after 48 hrs by SRB assay relative to control; assay type: functional; details: HCT-116, 48 h, read-out: GI
[6] = Growth inhibition of human NCI-ADR-RES cells at 10 uM after 48 hrs by SRB assay relative to control; assay type: functional; details: read-out: GI
[7] = Growth inhibition of human IGROV1 cells at 10 uM after 48 hrs by SRB assay relative to control; assay type: functional; details: IGROV-1, 48 h, read-out: GI
[8] = Growth inhibition of human OVCAR4 cells at 10 uM after 48 hrs by SRB assay relative to control; assay type: functional; details: OVCAR-4, 48 h, read-out: GI
[9] = Growth inhibition of human Hs 578T cells at 10 uM after 48 hrs by SRB assay relative to control; assay type: functional; details: read-out: GI
[10] = Growth inhibition of human HL-60(TB) cells at 10 uM after 48 hrs by SRB assay relative to control; assay type: functional; details: HL-60, 48 h, read-out: GI
[11] = tested on: KM12; test: Growth inhibition of human KM12 cells at 10 uM after 48 hrs by SRB assay relative to control; assay type: functional; details: KM12, 48 h, read-out: GI
[12] = Growth inhibition of human Caki1 cells at 10 uM after 48 hrs by SRB assay relative to control; assay type: functional; details: CAKI-1, 48 h, read-out: GI
[13] = Growth inhibition of human HCC2998 cells at 10 uM after 48 hrs by SRB assay relative to control; assay type: functional; details: HCC 2998, 48 h, read-out: GI
[14] = tested on: SK-MEL-2; test: Growth inhibition of human SK-MEL-2 cells at 10 uM after 48 hrs by SRB assay relative to control; assay type: functional; details: SK-MEL-2, 48 h, read-out: GI
[15] = Growth inhibition of human UACC62 cells at 10 uM after 48 hrs by SRB assay relative to control; assay type: functional; details: UACC-62, 48 h, read-out: GI
[16] = Growth inhibition of human MOLT4 cells at 10 uM after 48 hrs by SRB assay relative to control; assay type: functional; details: MOLT-4, 48 h, read-out: GI
[17] = Growth inhibition of human BT549 cells at 10 uM after 48 hrs by SRB assay relative to control; assay type: functional; details: BT-549, 48 h, read-out: GI
[18] = Growth inhibition of human SNB19 cells at 10 uM after 48 hrs by SRB assay relative to control; assay type: functional; details: SNB-19, 48 h, read-out: GI
[19] = Growth inhibition of human DU145 cells at 10 uM after 48 hrs by SRB assay relative to control; assay type: functional; details: DU-145, 48 h, read-out: GI
[20] = tested on: U-251; test: Growth inhibition of human U251 cells at 10 uM after 48 hrs by SRB assay relative to control; assay type: functional; details: U-251, 48 h, read-out: GI
[21] = tested on: MCF7; test: Growth inhibition of human MCF7 cells at 10 uM after 48 hrs by SRB assay relative to control; assay type: functional; details: MCF7, 48 h, read-out: GI
[22] = Growth inhibition of human COLO205 cells at 10 uM after 48 hrs by SRB assay relative to control; assay type: functional; details: COLO 205, 48 h, read-out: GI
[23] = Growth inhibition of human SF268 cells at 10 uM after 48 hrs by SRB assay relative to control; assay type: functional; details: SF-268, 48 h, read-out: GI
[24] = tested on: A498; test: Growth inhibition of human A498 cells at 10 uM after 48 hrs by SRB assay relative to control; assay type: functional; details: A498, 48 h, read-out: GI
[25] = tested on: ACHN; test: Growth inhibition of human ACHN cells at 10 uM after 48 hrs by SRB assay relative to control; assay type: functional; details: read-out: GI
[26] = Growth inhibition of human HOP92 cells at 10 uM after 48 hrs by SRB assay relative to control; assay type: functional; details: HOP-92, 48 h, read-out: GI
[27] = Growth inhibition of human TK10 cells at 10 uM after 48 hrs by SRB assay relative to control; assay type: functional; details: TK-10, 48 h, read-out: GI
[28] = tested on: SN12C; test: Growth inhibition of human SN12C cells at 10 uM after 48 hrs by SRB assay relative to control; assay type: functional; details: read-out: GI
[29] = Growth inhibition of human UACC257 cells at 10 uM after 48 hrs by SRB assay relative to control; assay type: functional; details: UACC-257, 48 h, read-out: GI
[30] = Growth inhibition of human SF295 cells at 10 uM after 48 hrs by SRB assay relative to control; assay type: functional; details: SF-295, 48 h, read-out: GI
[31] = tested on: Malme-3M; test: Growth inhibition of human MALME-3M cells at 10 uM after 48 hrs by SRB assay relative to control; assay type: functional; details: read-out: GI
[32] = tested on: NCI-H23; test: Growth inhibition of human NCI-H23 cells at 10 uM after 48 hrs by SRB assay relative to control; assay type: functional; details: NCI-H23, 48 h, read-out: GI
[33] = Growth inhibition of human OVCAR5 cells at 10 uM after 48 hrs by SRB assay relative to control; assay type: functional; details: OVCAR-5, 48 h, read-out: GI
[34] = tested on: K562; test: Growth inhibition of human K562 cells at 10 uM after 48 hrs by SRB assay relative to control; assay type: functional; details: K562, 48 h, read-out: GI
[35] = tested on: A549; test: Growth inhibition of human A549 cells at 10 uM after 48 hrs by SRB assay relative to control; assay type: functional; details: A549, 48 h, read-out: GI
[36] = Growth inhibition of human HCT15 cells at 10 uM after 48 hrs by SRB assay relative to control; assay type: functional; details: HCT-15, 48 h, read-out: GI
[37] = organism: Ovis aries; test: Inhibition of sheep brain tubulin polymerization at 100 uM by DAPI staining-based fluorimetric method

Row | SMILES | inhibition of growth at 10 µM [1] | inhibition of growth at 10 µM [2] | inhibition of growth at 10 µM [3] | inhibition of growth at 10 µM [4] | inhibition of growth at 10 µM [5] | inhibition of growth at 10 µM [6] | inhibition of growth at 10 µM [7] | inhibition of growth at 10 µM [8] | inhibition of growth at 10 µM [9] | inhibition of growth at 10 µM [10] | inhibition of growth at 10 µM [11] | inhibition of growth at 10 µM [12] | inhibition of growth at 10 µM [13] | inhibition of growth at 10 µM [14] | inhibition of growth at 10 µM [15] | inhibition of growth at 10 µM [16] | inhibition of growth at 10 µM [17] | inhibition of growth at 10 µM [18] | inhibition of growth at 10 µM [19] | inhibition of growth at 10 µM [20] | also measured
1 | COc1ccc(C(=O)c2ccc3c(c2)Sc2cc(C(=O)c4ccc(OC)c(F)c4)ccc2N3C)cc1F | 0% | 2% | 2% | 0% | 2% | 0% | 0% | 0% | 17% | 0% | 0% | 0% | 0% | 4% | 0% | 0% | 34% | 6% | 0% | 10% | inhibition of growth at 10 µM [21]: 7%; inhibition of growth at 10 µM [22]: 0%; inhibition of growth at 10 µM [23]: 0%; inhibition of growth at 10 µM [24]: 5%; inhibition of growth at 10 µM [25]: 0%; inhibition of growth at 10 µM [26]: 1%; inhibition of growth at 10 µM [27]: 7%; inhibition of growth at 10 µM [28]: 2%; inhibition of growth at 10 µM [29]: 11%; inhibition of growth at 10 µM [30]: 0%; inhibition of growth at 10 µM [31]: 5%; inhibition of growth at 10 µM [32]: 4%; inhibition of growth at 10 µM [33]: 0%; inhibition of growth at 10 µM [34]: 6%; inhibition of growth at 10 µM [35]: 15%; inhibition of growth at 10 µM [36]: 0%
2 | O/N=C(/c1ccc2c(c1)Sc1ccccc1N2)c1c[nH]c2ccccc12 | 74% | 47% | 24% | 53% | 64% | 80% | 44% | 26% | 40% | 87% | 76% | 53% | 5% | 57% | 54% | 74% | 63% | 40% | 41% | 31% | inhibition of growth at 10 µM [21]: 57%; inhibition of growth at 10 µM [22]: 45%; inhibition of growth at 10 µM [23]: 44%; inhibition [37]: 15%; inhibition of growth at 10 µM [24]: 53%; inhibition of growth at 10 µM [25]: 17%; inhibition of growth at 10 µM [26]: 51%; inhibition of growth at 10 µM [27]: 21%; inhibition of growth at 10 µM [28]: 27%; inhibition of growth at 10 µM [29]: 18%; inhibition of growth at 10 µM [30]: 55%; inhibition of growth at 10 µM [31]: 45%; inhibition of growth at 10 µM [32]: 24%; inhibition of growth at 10 µM [33]: 31%; inhibition of growth at 10 µM [34]: 87%; inhibition of growth at 10 µM [35]: 48%; inhibition of growth at 10 µM [36]: 58%
